Series [1] is described as follows: biodistribution study (gamma counting of tissues and fluids). The format is in vivo, BALB/c mice. The protocol: FIG. 11 is a plot showing biodistribution data for selected fluids and tissues for TCO-BP labeled with ^99mTc and coupled to a dye-tetrazine conjugate according to an embodiment of the present application. Experiments were performed using Balb/c mice (n=3 per time point) and tissues and fluids were collected at 1, 3, 6, and 24 h post administration. Data are expressed as the mean percent injected dose per gram (% ID g−1)±SEM.
(upper plot) and fluorescence spectra and intensity data for blood samples (n=3 for each time point) following the administration of TCO-BP labeled with ^99mTc and coupled to a dye-tetrazine conjugate according to an embodiment of the present application taken at 1, 3, 6, and 24 h p.i. (lower plot).
Biodistribution studies were performed using female BALB/c mice (Charles River, Kingston, N.Y.) at the indicated time points. The mice were administered the agents via tail vein injection with the final volume not exceeding 200 μL. A 5 mg/mL solution of compound 9 (see Scheme 2, below) in 10% ethanol in saline was administered at a dose of 20 mg/kg to all mice (approximately 518 kBq of 9). For all studies, at 1, 3, 6, or 24 h post-injection of the labeled compound, the animals were euthanized by cervical dislocation. Fluids, bone (knee and shoulder), and select tissues were collected, weighed, and counted in a PerkinElmer Wizard 1470 automatic gamma counter. Decay correction was used to normalize organ activity measurements to time of dose preparation for data calculations. Data is expressed as percent injected dose per gram tissue or fluid (% ID/g) or percent injected dose per organ (% ID/O).
Mice were administered 9 (518 kBq) and sacrificed at […] post injection where fluids, bone (knee, shoulder), and other key tissues were collected, weighed, and counted in a gamma counter. The resulting data is shown in FIG. 11 and expressed as percent injected dose per gram of tissue or fluid (% ID g^−1).

The subject of series [2] is plasma proteins. Description: plasma binding study. It counts as in vitro ADME. The following applies: for Pellet: activity in protein pellet; for Supernatant: activity in supernatant. From the text: FIG. 13 is a plot showing the results of a plasma binding study of TCO-BP labeled with ^99mTc and coupled to a dye-tetrazine conjugate according to an embodiment of the present application. […]

Series [3] in a line: stability of 5 in plasma (HPLC). It counts as in vitro ADME. Conditions: murine plasma at 37° C. The protocol:
Compound 5 was prepared from the commercially available dye IR-783, which is known to produce a strong photoacoustic signal, in only two steps. The first step involved the preparation of the IR-783-aldehyde 3 which was done successfully using a Suzuki-Miyaura coupling between 1 and 2 in the presence of Pd(PPh3)4 and Cs2CO3. A significant number of different catalysts, bases and reaction conditions were screened to maximize the yield of 3 (96%). The aldehyde was subsequently coupled to tetrazine 4, prepared using a literature procedure,^14 to form the hydrazone 5. Following characterization by nuclear magnetic resonance (NMR) spectroscopy, high resolution mass spectrometry (HRMS) and high performance liquid chromatography (HPLC), the stability of 5 in plasma was evaluated.

Series [4] in a line: solubility / formulation concentration in 10% ethanol in saline. It counts as physicochemical. Conditions: aqueous with cosolvent or surfactant or cyclodextrin, read-out: concentration formulated (soluble). The protocol: Prior to developing and testing a targeted derivative, in vivo imaging studies were performed with 5 and 143B human osteosarcoma xenografts. Compound 5 was soluble in 10% ethanol in saline and formulated at a concentration of 5 mg mL^−1, which conveniently is higher than what can be achieved for ICG (1 mg mL^−1). Prior to injection, tumors were imaged in order to separate the signals arising from oxygenated and deoxygenated hemoglobin, and 5, which are shown in red, blue and green respectively in color images of FIG. 8. Following administration of 200 μL of 5 (1 mg), signal arising from 5 was clearly visible in the tumor as early as 1 hour post-injection (FIG. 8, upper right image). Mice were sacrificed and the tumors were imaged ex vivo (FIG. 8, lower left image) where uptake of the dye within the tumor was clearly evident.

Series [5] has as its system 143B human osteosarcoma xenografts. Nature of the series: in vivo photoacoustic imaging of tumor xenografts. Also on record: species or system BALB/c nu/nu mice. The following applies: 1 hour post injection versus background before injection; 200 μL of 5 (1 mg). The protocol:
Red in color images=oxyhemoglobin, Blue in color images=deoxyhemoglobin and Green in color images=the dye-tetrazine conjugate according to an embodiment of the present application. The dashed white lines outline the tumor.
Female BALB/c […] mice (Charles River Laboratories, Kingston, N.Y.) at 4-6 weeks of age were sterile housed and maintained at 24° C. with a 12 h light/dark cycle and were provided autoclaved food and water ad libitum. All procedures were conducted according to the guidelines of the Committee for Research and Ethical Issues of the International Association for the Study of Pain, and guidelines established by the Canadian Council on Animal Care and the McMaster University Animal Research Ethics Board. Female 10-11 week old BALB/c nu/nu mice (Charles River Laboratories, Kingston, N.Y.) were injected with 2.0×10^6 143 B cells in Matrigel:Dulbecco's phosphate-buffered saline (DPBS) (1:1) subcutaneously into the right flank. Photoacoustic studies were performed 10 days following tumor inoculation.
Photoacoustic imaging was performed using Vevo LAZR-X (FUJIFILM VisualSonics Inc., Toronto, ON, Canada) Imaging system equipped with a 680-970 nm laser. Mice were anaesthetized with isofluorane and set up on a platform that monitored the respiration rate and the heart rate of the mouse. The hair on the hindlimb was removed while the mouse was anaesthetized. […]

In series [6] the test system is sites of high calcium accretion. Description: in vivo photoacoustic imaging of the knee joint (calcium accretion). Also on record: species or system Balb/c mice. The following applies: for photoacoustic signal in the knee (or shoulder) joints: in vivo, 1 hour post-injection. The method, then:
The white arrows indicate the knee joint and light grey arrows indicate blood vessels.
Photoacoustic imaging was performed using Vevo LAZR-X (FUJIFILM VisualSonics Inc., Toronto, ON, Canada) Imaging system equipped with a 680-970 nm laser. Mice were anaesthetized with isofluorane and set up on a platform that monitored the respiration rate and the heart rate of the mouse. The hair on the hindlimb was removed while the mouse was anaesthetized. A 30-MHz, linear array ultrasound transducer with integrated fiber optic light delivery (LZ-400 and MX-400, FUJIFILM VisualSonics, Inc.) was positioned laterally overtop the hindlimb knee joint. The integrated fiber bundle delivered 15 to 20 mJ/cm^2 of light to the hindlimb of the mouse.
There are a number of TCO-derived molecules, including antibodies and small molecules, that are available for use as targeting vectors.^16,17,18,19 For a proof of concept study, compound 5 was combined with a TCO-derived bisphosphonate (TCO-BP (6)). TCO-BP has been used to target radiolabeled tetrazines to sites of high calcium accretion. Conveniently, the compound allows testing to be performed in inexpensive healthy mouse models since tetrazine derivatives coupled to TCO-BP should localize to elbow and knee joints where there is elevated turnover of calcium.^16,20,21 Compound 7 was prepared by mixing compounds 5 and 6 at room temperature for 10 min in quantitative yield; highlighting the ease with which new photoacoustic imaging agents can be prepared using this approach.
For in vivo studies, a group of Balb/c mice were administered the parent tetrazine 5 and a second group received the bisphosphonate derivative 7.

For series [7], the target named is T1, bovine serum albumin (BSA) (Bos taurus, UniProt P02769).
T1 construct: purchased Sigma-Aldrich
T1 sequence (P02769 25-607): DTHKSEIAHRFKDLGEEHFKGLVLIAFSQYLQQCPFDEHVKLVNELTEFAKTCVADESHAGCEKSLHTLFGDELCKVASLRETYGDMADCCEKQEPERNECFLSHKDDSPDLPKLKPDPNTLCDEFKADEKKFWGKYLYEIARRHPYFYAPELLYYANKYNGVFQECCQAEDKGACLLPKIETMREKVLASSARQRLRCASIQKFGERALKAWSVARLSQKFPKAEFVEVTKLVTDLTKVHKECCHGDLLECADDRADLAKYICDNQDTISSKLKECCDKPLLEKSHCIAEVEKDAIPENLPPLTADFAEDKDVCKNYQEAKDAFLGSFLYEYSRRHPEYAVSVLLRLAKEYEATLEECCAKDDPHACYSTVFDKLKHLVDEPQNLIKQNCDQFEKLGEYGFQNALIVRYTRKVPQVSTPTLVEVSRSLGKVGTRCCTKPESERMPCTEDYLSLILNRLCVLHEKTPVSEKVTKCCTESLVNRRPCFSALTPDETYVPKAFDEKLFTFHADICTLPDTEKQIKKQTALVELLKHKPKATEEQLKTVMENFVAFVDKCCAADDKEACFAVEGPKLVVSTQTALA
Nature of the series: preliminary albumin binding study (absorbance and emission with BSA). The following applies: absorbance and emission of 5 with varying concentrations of BSA. The method, then: When experiments were performed at high dye concentrations, aggregation completely quenches the fluorescence signal, which can be restored through the addition of albumin.

For series [8] the following is noted: comparison value for ICG; cited from earlier work.

Converted amounts (≈) assume the structure as drawn.

Regarding `CC1(C)C(/C=C/C2=C(c3ccc(/C=N/Nc4ccc(C(=O)NCc5ccc(C6=NNC=C7CCC(OC(=O)NCCCC8(O)P(=O)(O)[O][Tc]9([OH])([OH])([O]P(=O)(O)C(O)(CCCNC(=O)OC%10CC/C=C/CCC%10)P(=O)(O)[O]9)[O]P8(=O)O)CCCC76)cc5)cn4)cc3)C(=C/C=C3\N(CCCCS(=O)(=O)[O-])c4ccccc4C3(C)C)/CCC2)=[N+](CCCCS(=O)(=O)[O][Na])c2ccccc21` (centres unmarked) [Compound 9], the “blood level relative to [99mTc]Tc-TCO-BP alone” value is 20 × in series [1] (1 h) and 187 × in series [1] (6 h). Also, the “activity in the blood” value in series [1] (1 h post injection) is listed as “over 15 % ID g^−1”. Besides, the blood half-life in series [1] (determined using radioactive counting) is listed as 3.2 h. The Pellet in series [2] (0 h) worked out at 32.79; in series [2] (0.5 h), 36.10; in series [2] (1 h), 47.53; in series [2] (2 h), 45.29; in series [2] (3 h), 47.72; in series [2] (4 h), 46.88. In series [2] (6 h), this compound gave a Pellet of 47.83. Further, the Supernatant in series [2] (0 h) amounted to 52.00; in series [2] (0.5 h) it was 53.44; in series [2] (1 h), 47.27; in series [2] (2 h) it was 49.35; in series [2] (3 h), 46.82; in series [2] (4 h) it was 47.42. In series [2] (6 h), this compound gave a Supernatant of 47.46. Also, the “activity in the supernatant” value in series [2] (after 1 hour) is 50%. For the same compound, the “activity present in the pellet containing the proteins” value in series [2] (after 1 hour) is recorded as 50%.

As to `CC1(C)C(/C=C/C2=C(c3ccc(/C=N/Nc4ccc(C(=O)NCc5ccc(-c6nncnn6)cc5)cn4)cc3)C(=C/C=C3\N(CCCCS(=O)(=O)[O-])c4ccccc4C3(C)C)/CCC2)=[N+](CCCCS(=O)(=O)O)c2ccccc21` [Compound 5], the “reactivity of the tetrazine towards TCO-derivatives after plasma incubation” value in series [3] (24 h) is on record as “remained reactive towards trans-cyclooctene (TCO)-derivatives”. Besides, the “stability in plasma (degradation)” value in series [3] (out to 24 h) is “no signs of degradation”. For the same compound, in series [4], the solubility turned out to be 5000 µg/mL (≈ 4.54 mM). In addition, the “increase in signal intensity in the tumor” value in series [5] is 2.3 ×. In addition, in series [6], the “photoacoustic signal in the knee (or shoulder) joints” value is listed as “did not show any significant signal”. For the same compound, the albumin binding entry in series [7] is listed as “dye binding to a hydrophobic binding site of albumin”.

`CC1(C)C(/C=C/C=C/C=C/C=C2\N(CCCCS(=O)(=O)O)c3ccc4ccccc4c3C2(C)C)=[N+](CCCCS(=O)(=O)[O-])c2ccc3ccccc3c21` [ICG, indocyanine green]: the “concentration that can be achieved” value in series [8] is 1000 µg/mL.

On to `CC1(C)C(/C=C/C2=C(c3ccc(/C=N/Nc4ccc(C(=O)NCc5ccc(C6=NNC=C7CCC(OC(=O)NCCCC(O)(P(=O)(O)O)P(=O)(O)O)CCCC76)cc5)cn4)cc3)C(=C/C=C3\N(CCCCS(=O)(=O)[O-])c4ccccc4C3(C)C)/CCC2)=[N+](CCCCS(=O)(=O)O)c2ccccc21` (centres unmarked) [Compound 7], for which the “uptake in the leg, images ex vivo” value in series [6] (ex vivo leg after 1 hour post-injection imaging) is on record as “intense uptake”. Further, the “photoacoustic signal in the knee (or shoulder) joints” value in series [6] is listed as “significant signal”.

Source of the values: patent US20210008229A1, “TARGETED PHOTOACOUSTIC AGENTS AND USES THEREOF” (McMaster University, priority 2019, published 2021).
